Measured values taken from patent US20110165173A1, “THERAPEUTIC AGENT AND DETECTION REAGENT FOR ARTERIOSCLEROTIC DISEASE WHICH TARGETS FOR SALUSIN” (PROTEINEXPRESS CO., LTD., priority 2007, published 2011).

How the values were obtained:
CD36 = CD36 expression by macrophages of treated apoE-deficient mice (Western blotting); type: in vivo; conditions: four weeks
Protocol: 13-week-old male apoE-deficient mice (72 mice) were divided into the following 6 groups: (i) physiological salt saline (control); (ii) salusin-α (0.6 nmol/kg/h); (iii) salusin-β (0.6 nmol/kg/h); (iv) salusin-α (0.6 nmol/kg/h)+anti-salusin-α serum (1.4 μg/kg/h); (v) salusin-β (0.6 nmol/kg/h)+anti-salusin-β serum (1.4 μg/kg/h); and (vi) anti-salusin-β serum (1.4 μg/kg/h). The mice were subjected to continuous subcutaneous administration with the use of an osmotic mini-pump for 4 to 8 weeks. The osmotic mini-pump and the solution contained therein were changed every week.
Macrophages were collected as in the experiment in (1), and the protein expression of the gene involved in foaming of macrophages (i.e., scavenger receptors CD36 and SR-A capable of recognizing oxidized LDL, intracellular cholesterol esterification enzyme ACAT1, and ABCA1, ABCG1, and SR-BI, which are involved in cholesterol efflux) was analyzed by Western blotting. For the internal standard of the macrophage function, β-actin expression was also examined. For quantification of the band concentration, Analyzer (ATTO Corporation, Tokyo) was used.

ACAT activity = ACAT activity assay by liposome reconstitution method in human monocyte-derived macrophages; type: cell-based; conditions: 0.6 nM during 7-day culture
Description: For ACAT activity assay, the liposome reconstitution method was used. This method involves the use of a system in which the ACAT-1 protein present in the endoplasmic reticulum is reconstituted into liposomes with the use of mixed micelles comprising cholesterol/phosphatidylcholine, thereby achieving a saturated concentration level of cholesterol that can be used as an ACAT-1 substrate [Cheng D et al., J Biol Chem. 1995; 270: 685-695.]. In the case of the conventionally used microsome method, cholesterol that endogenously exists in the endoplasmic reticulum has been used as a substrate. However, in general, the endoplasmic reticulum membrane is poor in cholesterol. Therefore, it is thought that the saturated level of cholesterol capable of serving as an ACAT substrate has not been achieved, resulting in underestimation of ACAT activity. Herein, ACAT activity was assayed by adding another substrate, [^14C]oleoyl-CoA, to a reaction system and assaying the cholesterol [^14C]oleate generated through the ACAT reaction (FIG. 4).
Peripheral blood human monocytes (4×10^6 cells/2 mL) were seeded on 4 to 6 6-cm dishes and cultured for 7 days so as to differentiate into macrophages. At such time, salusin-α or salusin-β was added during culture. […] The protein concentration of the homogenized cell extraction solution was quantitatively assayed by the BCA method (Pierce). […]

| Substance | CD36 protein expression (CD36; salusin-α 0.6 nmol/kg/h) | ACAT activity, percent of that of the control (ACAT activity) [%] | CD36 protein expression relative to control level (CD36; 0.6 nmol/kg/h, range given jointly for CD36, SR-A, ACAT1, P<0.05) [times] | ACAT activity relative to control (ACAT activity) [times] |
| --- | --- | --- | --- | --- |
| salusin-α: peptide (SEQ ID NO: 1) comprising 28 amino acid residues, generated by processing from preprosalusin (SGALPPAPAAPRPALRAQRAGPAGPGAK; listed as Homo sapiens) | did not influence | 50 | – | – |
| salusin-β: peptide (SEQ ID NO: 3) comprising 20 amino acid residues, generated by processing from preprosalusin (AIFIFIRWLLKLGHHGRAPP; listed as Homo sapiens) [reference compound] | – | – | 1.5 to 2.8 | 1.8 |
